This note sets out measurements from patent US11142515B2, “Pyrazolyl-ureas as kinase inhibitors” (RESPIVERT LIMITED, priority 2014, dated 2021).

Test [1] has as its system ICAM-1 expression in BEAS2B cells. The experiment in a line: Poly I:C-induced ICAM-1 expression in BEAS2B cells. It counts as cell-based. Conditions: Homo sapiens, BEAS-2B, read-out: PolyIC/ICAM1 IC50 (BEAS2B). The procedure: Poly I:C was used in these studies as a simple, RNA virus mimic. Poly I:C-Oligofectamine mixture (2% Oligofectamine±1 μg/mL Poly I:C, 25 μL; Life Technologies and Invivogen Ltd., San Diego, Calif., respectively) was transfected into BEAS2B cells (human bronchial epithelial cells, ATCC). Cells were pre-incubated with final concentrations of test compounds for 2 h and the level of ICAM-1 expression on the cell surface was determined by cell-based ELISA. At a time point 18 h after poly I:C transfection, cells were fixed with 4% formaldehyde in PBS (100 μL) and then endogenous peroxidase was quenched by the addition of washing buffer (100 μL, 0.05% Tween in PBS: PBS-Tween) containing 0.1% sodium azide and 1% hydrogen peroxide. Cells were washed with wash-buffer (3×200 μL). After blocking the wells with 5% milk in PBS-Tween (100 μL) for 1 h, the cells were incubated with anti-human ICAM-1 antibody (50 μL; Cell Signaling Technology, Danvers, Mass.) in 1% BSA PBS overnight at 4° C.
The cells were washed with PBS-Tween (3×200 μL) and incubated with the secondary antibody (100 μL; HRP-conjugated anti-rabbit IgG, Dako Ltd., Glostrup, Denmark). The cells were then incubated with of substrate (50 μL) for 2-20 min, followed by the addition of stop solution (50 μL, 1N H2SO4). The ICAM-1 signal was detected by reading the absorbance at 450 nm against a reference wavelength of 655 nm using a spectrophotometer. The cells ware then washed with PBS-Tween (3×200 μL) and total cell numbers in each well were determined by reading absorbance at 595 nm after Crystal Violet staining (50 μL of a 2% solution in PBS) and elution by 1% SDS solution (100 μL) in PBS. The measured OD 450-655 readings were corrected for cell number by dividing with the OD595 reading in each well. The inhibition of ICAM-1 expression was calculated at each concentration of test compound by comparison with vehicle control.

Another test deals with T1, p38MAPKγ (MAPK12) (Homo sapiens, UniProt P53778).
T1 construct: purchased Life Technologies
T1 sequence (P53778 1-367): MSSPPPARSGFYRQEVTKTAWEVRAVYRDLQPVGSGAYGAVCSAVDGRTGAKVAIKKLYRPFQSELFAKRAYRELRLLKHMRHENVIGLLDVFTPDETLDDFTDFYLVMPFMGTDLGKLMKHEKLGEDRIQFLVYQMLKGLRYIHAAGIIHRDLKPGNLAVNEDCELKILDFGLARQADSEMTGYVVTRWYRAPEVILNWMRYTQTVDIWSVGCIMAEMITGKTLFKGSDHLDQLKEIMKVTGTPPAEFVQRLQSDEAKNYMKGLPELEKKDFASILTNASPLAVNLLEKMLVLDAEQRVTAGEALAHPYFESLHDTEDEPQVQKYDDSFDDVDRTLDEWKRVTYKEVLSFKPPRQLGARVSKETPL
Description: p38 MAPKγ enzyme inhibition (Z-LYTE FRET). Conditions: Table 2A; read-out: IC50 Values for Enzyme Inhibition p38 MAPKγ. It counts as biochemical. An outline of the steps: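 Enzyme (added at 800 ng/mL) was preincubated 2 h at RT with compound (solutions of 40 to 0.0012 μg/mL), then FRET peptide (8 μM) and ATP (400 μM), both as added, were reacted 1 h at RT. Protease development followed for 1 h; phosphorylation was read as the coumarin/fluorescein emission ratio.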

For a further test, the target named is T2, Hck (Homo sapiens, UniProt P08631).
T2 construct: purchased Life Technologies
The experiment in a line: Hck enzyme inhibition (Z-LYTE FRET). In kind it is biochemical. Conditions: Table 2A. The procedure:
The enzyme inhibitory activities of compounds disclosed herein were determined by FRET using synthetic peptides labelled with both donor and acceptor fluorophores (Z-LYTE, Life Technologies, Paisley, UK).
The relevant enzyme (1000 ng/mL, 1400 ng/mL or 2000 ng/mL respectively, 2.5 μL) was incubated with the test compound (either 40 μg/mL, 12 μg/mL, 4 μg/mL, 1.2 μg/mL, 0.4 μg/mL, 0.12 μg/mL, 0.04 μg/mL, 0.012 μg/mL, 0.004 μg/mL or 0.0012 μg/mL, 2.5 μL each) for 2 h at RT. The FRET peptides (8 μM, 2.5 μL), and appropriate ATP solutions (2.5 μL, 800 μM for c-Src, and 60 μM ATP for HCK and Syk) were then added to the enzyme/compound mixtures and incubated for 1 h at RT. Development reagent (protease, 5 μL) was added for 1 h prior to detection in a fluorescence microplate reader (EnVision, Perkin Elmer).
In all cases, the site-specific protease cleaves non-phosphorylated peptide only and eliminates the FRET signal. Phosphorylation levels of each reaction were calculated using the ratio of coumarin emission (donor) over fluorescein emission (acceptor), for which low ratios indicate high phosphorylation and high ratios indicate low phosphorylation levels.

T2 sequence (P08631 22-526): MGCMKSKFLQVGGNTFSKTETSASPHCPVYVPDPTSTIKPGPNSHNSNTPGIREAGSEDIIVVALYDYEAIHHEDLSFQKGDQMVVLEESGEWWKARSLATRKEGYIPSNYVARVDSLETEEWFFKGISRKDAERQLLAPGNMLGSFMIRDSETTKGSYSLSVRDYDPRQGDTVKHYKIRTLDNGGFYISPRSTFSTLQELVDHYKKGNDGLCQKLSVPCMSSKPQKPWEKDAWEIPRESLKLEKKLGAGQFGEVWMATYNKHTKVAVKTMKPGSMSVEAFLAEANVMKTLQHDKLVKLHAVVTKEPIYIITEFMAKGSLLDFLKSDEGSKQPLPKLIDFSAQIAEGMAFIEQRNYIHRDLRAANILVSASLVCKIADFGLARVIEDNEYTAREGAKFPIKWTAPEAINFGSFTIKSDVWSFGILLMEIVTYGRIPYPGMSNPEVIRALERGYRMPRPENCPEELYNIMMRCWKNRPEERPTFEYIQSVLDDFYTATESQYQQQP

On to `CC(C)(C)c1cc(NC(=O)Nc2ccc(OCc3ccnc(Nc4cnccn4)c3)c3ccccc23)n(-c2cccc(Cl)c2)n1` [Example 50], for which the IC50 in test [1] is above 1620 nM; on p38MAPKγ (MAPK12) it was 356 nM; against Hck, 113 nM.

For `Cc1ccc(-n2nc(C(C)(C)C)cc2NC(=O)Nc2ccc(OCc3ccnc(Nc4cnccn4)c3)c3ccccc23)cc1C` [Example 51], the IC50 in test [1] was 281 nM; on p38MAPKγ (MAPK12) it was 171 nM; against Hck it was 36 nM.

In the case of `Cc1ccc(-n2nc(C(C)(C)C)cc2NC(=O)Nc2ccc(OCc3ccnc(Nc4cnccn4)c3)c3ccccc23)cc1C(F)(F)F` [Example 52], the IC50 is above 1500 nM in test [1], above 15000 nM at p38MAPKγ (MAPK12) and 316 nM against Hck.
